# Values quoted from earlier work in patent US8435497B2, “Formoterol of and ciclesonide combination” (Takeda GmbH, priority 2003, dated 2013).
# How the values were obtained:
# [1] = relative to budesonide
# [2] = not given; remark: listed apart in the source
compound,measurement,setting,value
"CC(C)C(=O)OCC(=O)[C@@]12O[C@H](C3CCCCC3)O[C@@H]1C[C@H]1[C@@H]3CCC4=CC(=O)C=C[C@]4(C)[C@H]3[C@@H](O)C[C@@]12C [Ciclesonide, [11β,16α(R)]-16,17-[(Cyclohexylmethylen)bis(oxy)]-11-hydroxy-21-(2-methyl-1-oxopropoxy)pregna-1,4-dien-3,20-dion]",anti-inflammatory activity compared with budesonide,[1],higher
same,metabolism by liver oxidases,liver oxidases,very high
same,concentration of the drug in the lungs,lungs,high
same,absorption after oral administration,oral administration,only moderately absorbed
same,plasma half-life,plasma,low plasma half-life
same,systemic activity,[2]; in vivo,low systemic activity
same,systemic activity compared with budesonide,[2]; relative to budesonide,three times lower
